The values that follow come from PMC7582770, “Synthesis of “All-Cis” Trihydroxypiperidines from a Carbohydrate-Derived Ketone: Hints for the Design of New β-Gal and GCase Inhibitors” (Molecules, 2020).

Structures are written as SMILES.

Common to all, as to experiment: Commercial glycosidase screening
In assay [1] the target is T1, amyloglucosidase EC 3.2.1.3 (Aspergillus niger, UniProt P69328).
T1 construct: purchased Sigma-Aldrich or Megazyme Ltd
It is filed as biochemical. The note with it: 0.1 mM inhibitor. The source says:
(§1) A panel of 12 commercial glycosidases (α-L-fucosidase EC 3.2.1.51 from Homo sapiens, α-galactosidase EC 3.2.1.22 from coffee beans, β-galactosidases EC 3.2.1.23 from Escherichia coli and Aspergillus oryzae, α-glucosidases EC 3.2.1.20 from yeast and rice, amyloglucosidase EC 3.2.1.3 from Aspergillus niger, β-glucosidase EC 3.2.1.21 from almonds, α-mannosidase EC 3.2.1.24 from Jack beans, β-mannosidase EC 3.2.1.25 from snail, β-N-acetylglucosaminidases EC 3.2.1.52 from Jack beans and bovine kidney) purchased from Sigma-Aldrich (St. Louis, MO, USA) or Megazyme Ltd. (Bray, Co. Wicklow, Ireland) was screened.
(§2) The percentage (%) of inhibition towards the corresponding glycosidase was determined in quadruplicate in the presence of 100 μM of the inhibitor on the well. Each enzymatic assay (final volume 0.12 mL) contains 0.01–0.5 units/mL of the enzyme (with previous calibration) and 4.2 mM aqueous solution of the appropriate p-nitrophenyl glycopyranoside (substrate) buffered to the optimal pH of the enzyme. Enzyme and inhibitor were preincubated for 5 min at room temperature, and the reaction started by addition of the substrate. After 20 min of incubation at 37 °C, the reaction was stopped by the addition of 0.1 mL of sodium borate solution (pH 9.8). The p-nitrophenolate formed was measured by visible absorption spectroscopy at 405 nm (Asys Expert 96 spectrophotometer, Biochrom Ltd., Cambridge, England). Under these conditions, the p-nitrophenolate released led to optical densities linear with both reaction time and concentration of the enzyme (for more details, see the Supplementary Materials). The IC50 value (concentration of inhibitor required for 50% inhibition of enzyme activity) was determined from plots of % inhibition vs. different inhibitor concentrations. Each point of the graph is the average of four measures. The standard deviation for each point has been also represented in the graph.

The target in assay [2] is T2, α-L-fucosidase EC 3.2.1.51 (Homo sapiens, UniProt P04066).
T2 construct: purchased Sigma-Aldrich or Megazyme Ltd
T2 sequence (P04066 32-466): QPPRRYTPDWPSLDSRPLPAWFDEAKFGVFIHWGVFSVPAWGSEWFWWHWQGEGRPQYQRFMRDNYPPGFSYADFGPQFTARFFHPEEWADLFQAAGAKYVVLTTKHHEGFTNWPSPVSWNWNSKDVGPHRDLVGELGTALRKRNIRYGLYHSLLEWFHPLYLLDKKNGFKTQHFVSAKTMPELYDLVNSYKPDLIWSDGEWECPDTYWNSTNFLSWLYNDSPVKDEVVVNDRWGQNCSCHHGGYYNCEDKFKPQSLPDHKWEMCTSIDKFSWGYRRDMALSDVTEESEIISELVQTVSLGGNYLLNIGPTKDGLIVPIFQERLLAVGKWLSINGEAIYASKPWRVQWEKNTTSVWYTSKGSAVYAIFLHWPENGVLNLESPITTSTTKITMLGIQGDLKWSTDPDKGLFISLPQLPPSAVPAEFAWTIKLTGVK
Format: biochemical. The note with it: 0.1 mM inhibitor.
Source text: as §1, §2

Assay [3] concerns the target T3, α-mannosidase EC 3.2.1.24 (Canavalia ensiformis, UniProt C0HJB3).
T3 construct: purchased Sigma-Aldrich or Megazyme Ltd
T3 sequence (C0HJB3 1-981): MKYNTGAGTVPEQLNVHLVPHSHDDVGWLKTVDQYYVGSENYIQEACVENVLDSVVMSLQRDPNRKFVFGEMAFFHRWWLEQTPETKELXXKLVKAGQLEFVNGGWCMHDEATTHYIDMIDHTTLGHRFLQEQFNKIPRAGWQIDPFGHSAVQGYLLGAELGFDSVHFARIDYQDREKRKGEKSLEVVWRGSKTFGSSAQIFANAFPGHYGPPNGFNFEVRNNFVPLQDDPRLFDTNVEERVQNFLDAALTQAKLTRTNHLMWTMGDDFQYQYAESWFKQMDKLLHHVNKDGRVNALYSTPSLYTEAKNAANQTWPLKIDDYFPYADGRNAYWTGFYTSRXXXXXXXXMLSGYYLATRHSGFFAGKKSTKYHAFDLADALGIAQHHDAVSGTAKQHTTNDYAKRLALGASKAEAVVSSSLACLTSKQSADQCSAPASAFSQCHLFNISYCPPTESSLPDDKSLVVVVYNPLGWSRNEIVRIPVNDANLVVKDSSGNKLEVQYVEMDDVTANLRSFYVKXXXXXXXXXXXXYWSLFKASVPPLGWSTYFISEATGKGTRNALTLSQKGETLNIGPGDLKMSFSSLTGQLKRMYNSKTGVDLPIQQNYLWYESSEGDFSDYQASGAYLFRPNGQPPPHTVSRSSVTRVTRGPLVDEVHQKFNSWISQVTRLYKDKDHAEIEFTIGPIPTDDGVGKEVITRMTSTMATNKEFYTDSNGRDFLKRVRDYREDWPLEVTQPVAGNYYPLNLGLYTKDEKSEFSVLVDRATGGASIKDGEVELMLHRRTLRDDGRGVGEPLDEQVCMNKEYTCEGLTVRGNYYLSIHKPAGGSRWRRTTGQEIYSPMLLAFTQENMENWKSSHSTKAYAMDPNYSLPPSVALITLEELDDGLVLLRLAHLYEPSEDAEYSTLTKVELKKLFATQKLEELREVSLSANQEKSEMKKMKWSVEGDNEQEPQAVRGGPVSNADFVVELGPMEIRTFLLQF
Format: biochemical. The following applies: 0.1 mM inhibitor; read-out: % Inhibition at 0.1 mM, α-mannosidase Jack beans.
Source text: as §1, §2

For assay [4], the target named is T4, β-galactosidase EC 3.2.1.23 (Aspergillus oryzae, UniProt Q2UCU3).
T4 construct: purchased Sigma-Aldrich or Megazyme Ltd
Format: biochemical. The following applies: 0.1 mM inhibitor.
Source text: as §1, §2

For assay [5], the target named is T5, β-galactosidase EC 3.2.1.23 (Escherichia coli, UniProt P00722).
T5 construct: purchased Sigma-Aldrich or Megazyme Ltd
Format: biochemical. The note with it: read-out: % Inhibition at 0.1 mM, β-galactosidase Escherichia coli.
Source text: as §1, §2

Assay [6] has as its system β-N-acetylglucosaminidase EC 3.2.1.52. It is filed as biochemical, Jack beans. The note with it: 0.1 mM inhibitor.
Source text: as §1, §2

T1 sequence (P69328 25-640): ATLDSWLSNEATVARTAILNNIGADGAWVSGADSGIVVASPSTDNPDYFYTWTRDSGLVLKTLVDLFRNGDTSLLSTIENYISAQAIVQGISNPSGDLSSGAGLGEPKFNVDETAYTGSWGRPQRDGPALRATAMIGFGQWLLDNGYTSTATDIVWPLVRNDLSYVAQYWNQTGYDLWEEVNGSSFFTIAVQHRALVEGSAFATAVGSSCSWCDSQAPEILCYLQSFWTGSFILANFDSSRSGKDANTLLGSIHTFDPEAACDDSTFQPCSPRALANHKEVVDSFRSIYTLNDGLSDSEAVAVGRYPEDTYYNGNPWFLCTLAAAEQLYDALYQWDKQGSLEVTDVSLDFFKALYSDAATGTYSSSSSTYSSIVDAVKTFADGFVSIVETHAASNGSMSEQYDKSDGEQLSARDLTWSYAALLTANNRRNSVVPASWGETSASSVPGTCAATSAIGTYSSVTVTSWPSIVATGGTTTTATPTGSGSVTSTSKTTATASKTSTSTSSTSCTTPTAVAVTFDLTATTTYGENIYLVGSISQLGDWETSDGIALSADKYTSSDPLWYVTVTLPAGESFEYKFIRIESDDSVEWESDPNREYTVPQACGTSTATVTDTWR
T5 sequence (P00722 2-1024): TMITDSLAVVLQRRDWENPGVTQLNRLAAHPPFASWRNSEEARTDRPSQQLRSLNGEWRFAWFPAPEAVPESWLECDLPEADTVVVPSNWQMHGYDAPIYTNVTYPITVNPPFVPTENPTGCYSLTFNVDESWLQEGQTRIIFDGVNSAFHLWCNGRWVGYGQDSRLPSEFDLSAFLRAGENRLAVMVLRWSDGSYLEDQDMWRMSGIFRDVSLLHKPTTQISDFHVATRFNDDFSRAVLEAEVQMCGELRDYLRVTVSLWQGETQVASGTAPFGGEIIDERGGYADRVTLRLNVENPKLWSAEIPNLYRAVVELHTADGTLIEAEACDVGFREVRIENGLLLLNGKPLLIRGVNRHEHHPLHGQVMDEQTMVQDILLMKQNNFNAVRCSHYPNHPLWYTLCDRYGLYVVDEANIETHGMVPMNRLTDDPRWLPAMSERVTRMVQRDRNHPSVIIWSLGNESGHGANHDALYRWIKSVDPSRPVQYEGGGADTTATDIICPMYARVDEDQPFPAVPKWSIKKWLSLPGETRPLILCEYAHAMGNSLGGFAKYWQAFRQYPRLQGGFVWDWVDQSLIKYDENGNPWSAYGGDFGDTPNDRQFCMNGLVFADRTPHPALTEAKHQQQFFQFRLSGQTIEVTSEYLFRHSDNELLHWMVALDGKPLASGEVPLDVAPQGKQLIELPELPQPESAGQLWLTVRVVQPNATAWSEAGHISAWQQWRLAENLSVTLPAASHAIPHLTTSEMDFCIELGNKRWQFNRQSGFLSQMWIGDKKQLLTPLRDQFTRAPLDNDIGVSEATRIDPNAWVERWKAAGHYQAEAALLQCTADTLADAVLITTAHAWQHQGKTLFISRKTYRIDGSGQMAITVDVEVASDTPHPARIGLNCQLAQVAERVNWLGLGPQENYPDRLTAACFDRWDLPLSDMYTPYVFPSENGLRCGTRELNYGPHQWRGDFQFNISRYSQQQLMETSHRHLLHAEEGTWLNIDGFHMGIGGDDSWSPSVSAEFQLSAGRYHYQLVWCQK
T4 sequence (Q2UCU3 19-1005): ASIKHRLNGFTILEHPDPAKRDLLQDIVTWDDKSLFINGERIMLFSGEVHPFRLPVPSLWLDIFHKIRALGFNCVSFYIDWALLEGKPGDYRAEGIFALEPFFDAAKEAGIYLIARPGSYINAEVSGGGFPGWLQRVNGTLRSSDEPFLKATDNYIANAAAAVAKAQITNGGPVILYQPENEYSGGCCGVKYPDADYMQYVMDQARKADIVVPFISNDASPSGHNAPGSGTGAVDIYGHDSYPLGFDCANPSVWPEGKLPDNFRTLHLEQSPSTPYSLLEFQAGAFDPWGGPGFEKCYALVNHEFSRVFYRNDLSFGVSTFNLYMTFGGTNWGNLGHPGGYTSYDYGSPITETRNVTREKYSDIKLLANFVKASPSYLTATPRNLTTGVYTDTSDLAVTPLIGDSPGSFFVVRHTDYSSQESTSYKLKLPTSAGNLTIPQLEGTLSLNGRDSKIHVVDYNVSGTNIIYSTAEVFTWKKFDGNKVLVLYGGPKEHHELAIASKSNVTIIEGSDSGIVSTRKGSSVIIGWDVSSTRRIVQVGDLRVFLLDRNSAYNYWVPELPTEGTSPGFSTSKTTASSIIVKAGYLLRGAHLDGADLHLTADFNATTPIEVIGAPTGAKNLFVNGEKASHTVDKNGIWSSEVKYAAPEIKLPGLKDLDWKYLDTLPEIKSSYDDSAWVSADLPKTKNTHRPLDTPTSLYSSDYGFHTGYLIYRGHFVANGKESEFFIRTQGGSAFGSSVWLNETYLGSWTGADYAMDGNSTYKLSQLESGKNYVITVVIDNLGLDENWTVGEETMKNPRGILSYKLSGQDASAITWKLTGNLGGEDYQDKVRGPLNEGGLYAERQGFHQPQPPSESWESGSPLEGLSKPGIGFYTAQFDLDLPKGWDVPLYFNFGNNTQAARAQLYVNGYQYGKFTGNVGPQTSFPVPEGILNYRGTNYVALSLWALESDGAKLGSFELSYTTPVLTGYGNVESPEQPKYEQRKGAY

On to `CCCCCCCCCCCCN[C@H]1CNC[C@@H](O)[C@H]1O` [compound 10, (3R, 4S, 5S)-3,4-Dihydroxy-5-(Dodecylamino) Piperidine], for which the inhibition at 100 µM in assay [1], in assay [2], in assay [3], in assay [4] and in assay [5] was 0% in each case. In addition, in assay [6], the “% Inhibition at 0.1 mM, β-N-acetylglucosaminidase Jack beans” value (from here on “% Inhibition at 0.1 mM”) is recorded as “- (no inhibition detected)”.
In the case of `CCCCCCCC[C@]1(O)CNC[C@@H](O)[C@H]1O` [compound 12, (3S, 4R, 5R)-3,4,5-Trihydroxy-3-Octyl-Piperidine], the inhibition at 100 µM in assay [1], in assay [2], in assay [3], in assay [4] and in assay [5] was 0% each time. The “% Inhibition at 0.1 mM” value in assay [6] is “- (no inhibition detected)”.
As to `CCCCCCCCCO[C@@H]1CNC[C@@H](O)[C@H]1O` [compound 21, (3R, 4R, 5R)-4,5-Dihydroxy-3-(Nonyloxy) Piperidine], the inhibition at 100 µM in assay [1], in assay [2], in assay [3], in assay [4] and in assay [5] was 0% in each case. Further, the “% Inhibition at 0.1 mM” value in assay [6] is listed as “- (no inhibition detected)”.
